Results on seven compounds are retold here after patent US5344930A, “Fluorine and phosphorous-containing amphiphilic molecules with surfactant properties” (Alliance Pharmaceutical Corp., priority 1993, dated 1994).

As a reminder, the viability is a read-out of living cells in per cent, often relative to untreated cells.

The test system of one series is mice. The series is described as follows: Injection into the tail vein of mice (deaths, growth). In kind it is in vivo. To be noted: 500 μl in NaCl 9%, 10 mice of 20-25g, observed for 35 days.
A short description of series [1]: Growth and viability of lymphoblastoid cell cultures of the Namalva strain. In kind it is cell-based. The following applies: human, namalva lymphoblastoid cells, 1 g/l in 9% of NaCl, control = 100%; for activity: read-out: Cell Culture Growth %; for viability: read-out: Cell Culture Viability %.
Series [2] can be described thus: Fluorocarbon (F-decalin) emulsions: average particle size and stability. In kind it is physicochemical. The following applies: for Relative Increase % (particle size) / Average Particle Size After Preparation / Average Particle Size After 1 month: Table III. The method, then:
^a Emulsions prepared by microfluidization.
Additional stable perfluorodecalin (50% w/v) emulsions based on the perfluoroalkylated phosphatidylcholines 11 or 12 (2 or 3% w/v) as the sole surfactant have been prepared by sonication.
^a Emulsions prepared by sonication
^b The emulsions are stored at 25° C.
^c The emulsions are stored at 50° C.
^a All the emulsions are prepared by microfluidization and stored at
The new perfluoroalkylated surfactants were solubilized or dispersed into water. Then the fluorocarbon was added under agitation. Any emulsification method like sonication can be used but mechanical procedures such as microfluidization or high pressure homogenization are preferred. The emulsion obtained can be used as an O2 carrier. The significant stabilization effect which can be obtained by incorporating the new F-alkyl surfactants is illustrated for various emulsion formulations (see Tables above).

The nature of series [3]: Interfacial tension and spreading coefficient between water and perfluorodecalin. Type of series: physicochemical. The following applies: for γi (interfacial tension between water and perfluorodecalin): (+0.3), 56 mNm^-1 in the absence of surfactant; for Spreading Coef.: -56 mNm^-1 in the absence of surfactant. Here is the method: (§1) The strong surface activity of the compounds encompassed by this invention is illustrated in particular by the strong lowering of the surface tension (γs) they cause when added to water, as shown by the examples of surface tensions (measured at 20° C. and expressed in milliNewton.meter^-1) and calculated spreading coefficients collected in the Table below: […]

The nature of series [4]: Surface tension of aqueous solutions at 20° C. In kind it is physicochemical. The following applies: (+0.3). Here is the method:
as §1

[5] abbreviates: 1% compound + 2% EYP (Ref.: 3% EYP), 20% w/v F-decalin, 1 month at 25° C.
Where [6] appears, read: 1% compound + 2% EYP (Ref.: 3% EYP), 20% w/v F-decalin, sonication.
Setting [7] is: 1% compound + 2% EYP (Ref.: 3% EYP), 20% w/v F-decalin, sonication, stored at 25° C.

Turning to `C[N+](C)(C)CCOP(=O)([O-])OCC(COC(=O)CCCCCCCCCCC(F)(F)C(F)(F)C(F)(F)C(F)(F)C(F)(F)C(F)(F)F)OC(=O)CCCCCCCCCCC(F)(F)C(F)(F)C(F)(F)C(F)(F)C(F)(F)C(F)(F)F` (racemic) [Compound 10, 1,2-di[(11-F-hexyl)undecaoyl] 3-[2'-(N,N,N-trimethylamino)ethyl] phosphoryl rac-glycerol], the “concentration of which injection caused no deaths and did not perturb the normal growth” value with mice stood at 30000 µg/mL. Besides, in series [1], the activity was found to be 99% and the viability was 95%.
Take `C[N+](C)(C)CCOP(=O)([O-])OCC(COC(=O)CCCCCCCCCCC(F)(F)C(F)(F)C(F)(F)C(F)(F)F)OC(=O)CCCCCCCCCCC(F)(F)C(F)(F)C(F)(F)C(F)(F)F` (racemic) [Compound 11, 1,2-di [(11-F-butyl)undecaoyl] 3-[2'-(N,N,N-trimethylamino)ethylphosphoryl] rac-glycerol]: the “concentration of which injection caused no deaths and did not perturb the normal growth” value with mice turned out to be 100000 µg/mL. For the same compound, in series [1], the activity was determined as 60% and the viability is 83%. In addition, the “Relative Increase % (particle size)” value in series [2] (0.66% compound + 1.33% EYP (Ref.: 2% EYP), 50% w/v F-decalin, 1 month at 50° C.) is listed as 35%. The “Average Particle Size After Preparation” value in series [2] (0.66% compound + 1.33% EYP (Ref.: 2% EYP), 50% w/v F-decalin, sonication) was 0.37 μm. Moreover, the “Average Particle Size After 1 month” value in series [2] (0.66% compound + 1.33% EYP (Ref.: 2% EYP), 50% w/v F-decalin, sonication, stored at 50° C.) was 0.50 μm. Besides, the “increase in average particle size” value in series [2] (perfluorodecalin (50% w/v) emulsions, 2 or 3% w/v sole surfactant, sonication) is 10%.
Consider `C[N+](C)(C)CCOP(=O)([O-])OCC(COCCCCCCCCCCCC(F)(F)C(F)(F)C(F)(F)C(F)(F)F)OCCCCCCCCCCCC(F)(F)C(F)(F)C(F)(F)C(F)(F)F` (racemic) [Compound 13, 1,2-di [(11-F-butyl)undecyl] 3-[2'-(N,N,N-trimethylamino)ethylphosphoryl] rac-glycerol], for which the “concentration of which injection caused no deaths and did not perturb the normal growth” value in the series on mice was 60000 µg/mL. Further, in series [1], the activity amounted to 55% and the viability was 91%.
For the compound `COCCOP(=O)(OCCOC)OCC(COC(=O)CCCCCCCCCCC(F)(F)C(F)(F)C(F)(F)C(F)(F)C(F)(F)C(F)(F)F)OC(=O)CCCCCCCCCCC(F)(F)C(F)(F)C(F)(F)C(F)(F)C(F)(F)C(F)(F)F` (racemic) [Compound 14, [1',2'-di [(11-F-hexyl)undecanoyl]rac-glyceryl] [di (2'-methoxy-ethyl)] phosphate], the “concentration of which injection caused no deaths and did not perturb the normal growth” value in the series on mice came out at 10000 µg/mL.
Take `O=P(OCCC(F)(F)C(F)(F)C(F)(F)C(F)(F)C(F)(F)C(F)(F)F)(N1CCOCC1)N1CCOCC1` [Compound 1, [2-(F-hexyl)ethyl] dimorpholinophosphoramidate]: in series [3] (1 g/l in water), the “γi (interfacial tension between water and perfluorodecalin)” value worked out at 2.0 mNm^-1; the “Spreading Coef.” value is -1.6 mNm^-1. The “γs (surface tension)” value in series [4] (1 g/l in water) is recorded as 22.5 mNm^-1.
Turning to `O=P(OCCCCCCCCCCCC(F)(F)C(F)(F)C(F)(F)C(F)(F)C(F)(F)C(F)(F)F)(N1CCOCC1)N1CCOCC1` [Compound 3, [11-(F-hexyl)undecyl] dimorpholinohosphoramidate], in series [3] (0.1 g/l in water), the “γi (interfacial tension between water and perfluorodecalin)” value turned out to be 7.5 mNm^-1; the “Spreading Coef.” value was -0.9 mNm^-1. Further, the “γs (surface tension)” value in series [4] (0.1 g/l in water) is listed as 24.4 mNm^-1. Besides, the “Relative Increase % (particle size)” value in series [2] (setting [5]) is reported as 50%. In addition, the “Average Particle Size After Preparation” value in series [2] (setting [6]) worked out at 0.26 μm. The “Average Particle Size After 1 month” value in series [2] (setting [7]) was found to be 0.39 μm.
Regarding `O=P(OCCCCCCCCCCCC(F)(F)C(F)(F)C(F)(F)C(F)(F)C(F)(F)C(F)(F)C(F)(F)C(F)(F)F)(N1CCOCC1)N1CCOCC1` [Compound 4, [11-(F-octyl)undecyl] dimorpholinohosphoramidate], in series [3] (0.1 g/l in water), the “γi (interfacial tension between water and perfluorodecalin)” value came to 1.4 mNm^-1; the “Spreading Coef.” value is listed as -1.0 mNm^-1. In addition, the “γs (surface tension)” value in series [4] (0.1 g/l in water) is on record as 22.5 mNm^-1. Also, the “Relative Increase % (particle size)” value in series [2] (setting [5]) came to 50%. The “Average Particle Size After Preparation” value in series [2] (setting [6]) was 0.26 μm. Besides, the “Average Particle Size After 1 month” value in series [2] (setting [7]) came to 0.39 μm.
